The record followed here is patent US20230255934A1, “NURR1 RECEPTOR MODULATORS AND USES THEREOF” (The Regents of the University of California, priority 2020, published 2023).

Entries after “also recorded” stand apart in the source; their conditions may differ.

The target of assay [1] is T1, Nurr1-LBD_Gal4-DBD chimeric protein (Homo sapiens, UniProt P43354).
T1 construct: prepared by subcloning the Nurr1 LBD fragment into […] plasmid (Clontech) containing GAL4 DBD; expressed in transfected cells; host or cells: MN9D TET-ON cells
T1 sequence (P43354 360-595 limits assumed, change not shown): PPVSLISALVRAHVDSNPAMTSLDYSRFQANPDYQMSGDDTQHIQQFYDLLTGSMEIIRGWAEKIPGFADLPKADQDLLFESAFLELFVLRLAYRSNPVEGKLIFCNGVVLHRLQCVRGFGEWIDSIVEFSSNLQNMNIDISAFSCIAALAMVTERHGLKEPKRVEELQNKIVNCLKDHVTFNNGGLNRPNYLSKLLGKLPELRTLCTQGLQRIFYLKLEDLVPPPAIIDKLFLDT
Nature of the assay: Nurr1-LBD_Gal4-DBD luciferase reporter assay in MN9D cells. Format: cell-based. The settings on record: 6 h treatment. Here is the method:
(§1) Luciferase Reporter Assays. These assays were executed using standard protocols. MN9D TET-ON cells (P5) were grown for 60-72 h (see above) before being seeded at 1-10^5 cell/well in 24-well plate in DMEM/F12+5% TET-ON approved FBS 3 h before transfection. Cells were transfected using Lipofectamine 2000 (Invitrogen) and plasmid DNAs according to manufacturer's instructions. Lipofectamine/DNA complexes were prepared in Opti-Mem medium (Gibco) and incubated with cells overnight. The Nurr1-LBD_Gal4-DBD expressing plasmid was prepared by subcloning the Nurr1 LBD fragment into […] plasmid (Clontech) containing GAL4 DBD. […] Transfected cells were treated with increasing concentrations of 5-chloroindole or vehicle only for 6 h, after which time the media was aspirated and luciferase activity was measured. […] Resulting solutions were transferred to a white opaque 96-well plate (65 μL/well; 3 wells/sample) and firefly luciferase activity was measured using Veritas Microplate Luminometer (Turner BioSystems, Sunnyvale, Calif.). […] Renilla luciferase activity was measured after 20 min of incubation of the plate inside the luminometer. Experimental values are expressed as the average of firefly/renilla luciferase activity±standard deviation (for three independent biological replicates). […]
Background: Reporter assays use an easily measured gene product as a stand-in for the process of interest.

Assay [2] concerns the target T2, full-length Nurr1 (NBRE response element) (Mus musculus, UniProt Q06219).
T2 construct: a cell line derived from dopaminergic neurons which endogenously expresses full length Nurr1 and its target genes; endogenous in cells; host or cells: MN9D TET-ON cells
Nature of the assay: Full-length Nurr1 NBRE luciferase reporter assay in MN9D cells. Type of assay: cell-based. The settings on record: 6 h treatment. As to the method: as §1, with “DBD. The reporter plasmid pGL4.35 (luc2P/9XGAL4 UAS/Hygro) Vector (Promega) contains nine repeats of GAL4 UAS (Upstream Activator Sequence) and drives transcription of the luciferase reporter gene luc2P in response to binding of Nurr-LBD_Gal4-DBD chimeric protein. The pRL-null (Promega) plasmid expressing renilla luciferase was used as an internal control. […] Alternatively, cells were co-transfected with the reporter plasmid NBREx3-POMC-Luc containing three copies of the NBRE sequence ([NT] ID NO:23)) subcloned into the pXP1-luc plasmid containing the minimal (positions -34 to +63) POMC promoter as described previously^7, and the pRL-null plasmid.” for “DBD.”, “measured. Cells from each well were incubated for 15 min with 220 μL/well of Dual-Glo® Luciferase Reagent (Promega) at room temperature upon rotation on the orbital shaker.” for “measured.”

T2 sequence (Q06219 whole entry): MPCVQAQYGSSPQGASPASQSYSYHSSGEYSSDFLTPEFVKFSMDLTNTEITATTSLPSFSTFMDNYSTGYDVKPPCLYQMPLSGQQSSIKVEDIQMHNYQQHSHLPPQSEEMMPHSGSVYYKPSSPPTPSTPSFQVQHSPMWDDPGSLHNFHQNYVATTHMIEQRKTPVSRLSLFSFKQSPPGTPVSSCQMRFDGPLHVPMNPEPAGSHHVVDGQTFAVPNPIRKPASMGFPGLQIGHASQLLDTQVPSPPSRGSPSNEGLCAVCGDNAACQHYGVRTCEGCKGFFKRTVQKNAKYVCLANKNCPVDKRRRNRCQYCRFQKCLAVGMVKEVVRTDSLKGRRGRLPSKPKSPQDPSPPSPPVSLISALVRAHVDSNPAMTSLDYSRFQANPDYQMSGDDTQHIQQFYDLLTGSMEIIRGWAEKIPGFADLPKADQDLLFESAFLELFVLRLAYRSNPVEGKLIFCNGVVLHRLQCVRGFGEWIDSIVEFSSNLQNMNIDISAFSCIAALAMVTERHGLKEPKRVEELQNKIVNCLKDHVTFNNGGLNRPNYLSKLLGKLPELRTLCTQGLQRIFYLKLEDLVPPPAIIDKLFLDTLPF

Consider `Clc1ccc2[nH]ccc2c1` [5-chloroindole], for which the “Luciferase production, Nurr1-LBD_Gal4-DBD reporter” value in assay [1] is recorded as “stimulates production of luciferase; also recorded: stimulates the activity of Nurr1”. The “Luciferase production, full-length Nurr1 NBRE reporter” value in assay [2] is “stimulates production of luciferase; also recorded: stimulates the activity of Nurr1”.
